Assay results: ChEMBL document CHEMBL1130982, “Diversity of C-linked neoglycopeptides for the exploration of subsite-assisted carbohydrate binding interactions” (Bioorg Med Chem Lett, 1998)

test: Inhibitory activity against binding of horseradish peroxidase labelled Maclura pomifera, isolated from the seeds of osage orange tree to poly (acrylamide-co-allyl alpha-Galactopyranoside

| Structure (SMILES) | IC50 [µM] |
| --- | --- |
| CC(=O)N[C@@H](CCCCNC(=O)c1cc(NC(=O)CNC(=O)[C@H](C)NC(=O)C[C@H]2O[C@H](CO)[C@H](O)[C@H](O)[C@H]2O)cc(NC(=O)CNC(=O)[C@@H](C)NC(=O)C[C@H]2O[C@H](CO)[C@H](O)[C@H](O)[C@H]2O)c1)C(=O)NCC(=O)NCc1ccccc1 | 2840 |
| CC(=O)N[C@@H](CCCCNC(=O)CC1OC(CO)C(O)C(O)C1O)C(=O)NCC(N)=O (stereo partly specified) | 4180 |
| CCN(CC)C(=O)CNC(=O)[C@H](CCCCNC(=O)CN(CCC1OC(CO)C(O)C(O)C1O)C(=O)CC1OC(CO)C(O)C(O)C1O)NC(C)=O (stereo partly specified) | 4310 |

Now those with a lower IC50, led by results:

| IC50 [µM] | Structure (SMILES) |
| --- | --- |
| 1480 | CC(=O)N[C@@H](CCCCN(CCC1OC(CO)C(O)C(O)C1O)CCC1OC(CO)C(O)C(O)C1O)C(=O)NCC(N)=O (stereo partly specified) |
| 1500 | CC(=O)N[C@@H](CCCCNC(=O)c1cc(NC(=O)CNC(=O)[C@H]2CCCN2C(=O)C[C@@H]2O[C@@H](CO)[C@H](O)[C@H](O)[C@@H]2O)cc(NC(=O)CNC(=O)[C@@H]2CCCN2C(=O)C[C@H]2O[C@@H](CO)[C@H](O)[C@H](O)[C@@H]2O)c1)C(=O)NCC(=O)NCc1ccccc1 |
| 2570 | CCN(CC)C(=O)CC1OC(CO)C(O)C(O)C1O (stereo unspecified) |
